Data: patent US20140315809A1, “CALCIMIMETICS AND METHODS FOR THEIR USE” (KAI PHARMACEUTICALS INC., priority 2011, published 2014)
Where two headings read alike, the source gives them in different places.

How the values were obtained:
[1] = test system: 5/6 nephrectomy (Nx) rat model of renal insufficiency; test: PTH suppression in 5/6 Nx rats, daily dosing for 28 days; assay type: in vivo; details: daily 28 days, Ac-c(C)arrrar-NH2 1 mg/kg IV, cinacalcet 10 mg/kg PO
Experimental: The therapeutic efficacy of Ac-c(C)arrrar-NH2 (SEQ ID NO:3) was assessed using the 5/6 nephrectomy (Nx) rat model of renal insufficiency. The 5/6 Nx male rats were obtained from Charles River Laboratories (Wilmington, Mass.). These rats have undergone surgical removal of one kidney and ⅔ of the other kidney and were fed a high-phosphate diet. All experimental procedures with animals were performed according to IACUC guidelines. Statistical analysis was performed using one-way ANOVA with Bonferroni post test. All p-values are nominal.
Tail vein blood samples were taken periodically for measurement of PTH. PTH was measured using the Immutopics BioActive Intact ELISA (Cat #60-2700; Immutopics, San Clemente, Calif.).

[2] = test system: patients diagnosed with CKD-BMD and SHPT receiving hemodialysis; test: Single-dose clinical study: adverse events; assay type: in vivo, human; details: for Adverse Event: Anemia / Adverse Event: Congestive heart failure / Adverse Event: Decreased ionized calcium / Adverse Event: Gastro-esophageal reflux / Adverse Event: Injection site pruritis / Adverse Event: Paresthesias / Adverse Event: Pneumonia / Adverse Event: Toothache / Number of subjects with ≧1 AE: n (%) of subjects
Experimental: (§1) A clinical study was performed to assess the safety and tolerability of rising single doses of Ac-c(C)arrrar-NH2 (SEQ ID NO:3), administered by IV bolus to patients diagnosed with CKD-BMD and SHPT, and who were receiving hemodialysis. Data were generated to measure changes in patient serum intact PTH (iPTH) and serum calcium as well as bioavailability of the single dose of Ac-c(C)arrrar-NH2 (SEQ ID NO:3).
(§2) A double-blind, randomized, placebo-controlled, multicenter study in subjects receiving thrice-weekly hemodialysis (HD) was designed and carried out. The major inclusion criteria included hemodialysis for at least 3 months prior to the start of the study, a serum iPTH level greater than 300 pg/mL, a serum cCa (corrected calcium) level greater than or equal to 9.0 mg/dL and receiving of stable doses of active vitamin D or analogs, phosphate binders, and calcium supplements.
(§3) Cohorts 1, 2 and 3 were conducted with a two-period crossover design. Each cohort enrolled 4 subjects randomized 1:1 to Ac-c(C)arrrar-NH2 (SEQ ID NO:3) followed by placebo or placebo followed by Ac-c(C)arrrar-NH2 (SEQ ID NO:3). The dose levels of Ac-c(C)arrrar-NH2 (SEQ ID NO:3) for Cohorts 1-3 were 5, 10 and 20 mg. Cohort 4 enrolled 8 subjects who were randomized 1:1 to 40 mg Ac-c(C)arrrar-NH2 (SEQ ID NO:3) or placebo in a parallel group. Cohort 5 enrolled 8 subjects were randomized 1:1 to 60 mg Ac-c(C)arrrar-NH2 (SEQ ID NO:3) or placebo in a parallel group.
(§4) Ac-c(C)arrrar-NH2 (SEQ ID NO:3) or placebo was administered by IV bolus injection 2-4 hours following completion of HD.
Adverse events were captured through 7 days after study drug administration.
Adverse events experienced by each of the subjects was recorded for 7 days after administration of the Ac-c(C)arrrar-NH2 (SEQ ID NO:3) or placebo. A single serious adverse event occurred in one subject who had been treated with placebo in the 10 mg dose cohort. The subject discontinued form the study prior to receiving Ac-c(C)arrrar-NH2 (SEQ ID NO:3). There were no reports of nausea, vomiting or diarrhea.

[3] = Single-dose clinical study: pharmacokinetics, noncompartmental analysis; assay type: in vivo, human; details: for clearance / AUC / Cmax / half-life / Vd: human; for Vd: read-out: Vss
Experimental: as §1, §2, §3, §4
Pharmacokinetic (PK) analysis was performed on samples obtained from the treated subjects to determine bioavailability of the administered Ac-c(C)arrrar-NH2 (SEQ ID NO:3). […] Clearance (CL) and volume of distribution as steady state (Vss) values appear to be dose-independent over the range evaluation. Total clearance of Ac-c(C)arrrar-NH2 (SEQ ID NO:3) was approximately about 2 L/h. Ac-c(C)arrrar-NH2 (SEQ ID NO:3) was readily cleared from the central compartment by hemodialysis.

[4] = test system: patients diagnosed with CKD-BMD and SHPT receiving hemodialysis; test: Single-dose clinical study: corrected calcium; assay type: in vivo, human; details: single IV bolus 5-60 mg
Experimental: as §1
as §2, with “supplements. […]” for “supplements.”
Serum iPTH levels were determined using the electrochemiluminescence immunoassay (ECLIA) on the Roche Elecsys® analyzer. Calcium levels were adjusted for albumin <4 g/dL with the following equation: cCa=[measured Ca in mg/dL]+[4-(albumin in g/dL)]×0.8
The effects of Ac-c(C)arrrar-NH2 (SEQ ID NO:3) administration on serum iPTH and corrected calcium levels was also determined in this study. […] Blood from each subject was then analyzed to determine levels of iPTH and corrected calcium. […]

[5] = plasma, Cohort 1, 5 mg single IV bolus, hemodialysis subjects, geometric mean
[6] = plasma, Cohort 2, 10 mg single IV bolus, hemodialysis subjects, geometric mean
[7] = plasma, Cohort 3, 20 mg single IV bolus, hemodialysis subjects, geometric mean
[8] = plasma, Cohort 4, 40 mg single IV bolus, hemodialysis subjects, geometric mean
[9] = plasma, Cohort 5, 60 mg single IV bolus, hemodialysis subjects, geometric mean

With `C[C@@H](NCCCc1cccc(C(F)(F)F)c1)c1cccc2ccccc12` [cinacalcet] the “PTH levels (in words)” value ([1]; 6 hours after the last dosing) was “reduced”, the “PTH levels (in words)” value ([1]; 16 hours after the last dosing) was “increased” and the “PTH levels (in words)” value ([1]; 48 hours after the last dosing) was “increased”.
With `CC(=O)N[C@H](CSSC[C@H](N)C(=O)O)C(=O)N[C@H](C)C(=O)N[C@H](CCCNC(=N)N)C(=O)N[C@H](CCCNC(=N)N)C(=O)N[C@H](CCCNC(=N)N)C(=O)N[C@H](C)C(=O)N[C@H](CCCNC(=N)N)C(N)=O` [Ac-c(C)arrrar-NH2] the “Adverse Event: Anemia” value ([2]; 5 mg dose cohort) was 0 (0%), the “Adverse Event: Congestive heart failure” value ([2]; 5 mg dose cohort) was 0 (0%) and the “Adverse Event: Decreased ionized calcium” value ([2]; 5 mg dose cohort) was 0 (0%). For the same molecule, the “Adverse Event: Gastro-esophageal reflux” value ([2]; 5 mg dose cohort) was 1 (25%), the “Adverse Event: Injection site pruritis” value ([2]; 5 mg dose cohort) was 0 (0%) and the “Adverse Event: Paresthesias” value ([2]; 5 mg dose cohort) was 1 (25%). The “Adverse Event: Pneumonia” value ([2]; 5 mg dose cohort) was 0 (0%), the “Adverse Event: Toothache” value ([2]; 5 mg dose cohort) was 0 (0%) and the “Number of subjects with ≧1 AE” value ([2]; 5 mg dose cohort) was 1 (25%). For the same molecule, the “Adverse Event: Anemia” value ([2]; 10 mg dose cohort) was 0 (0%), the “Adverse Event: Congestive heart failure” value ([2]; 10 mg dose cohort) was 0 (0%) and the “Adverse Event: Decreased ionized calcium” value ([2]; 10 mg dose cohort) was 1 (33%). For the same molecule, the “Adverse Event: Gastro-esophageal reflux” value ([2]; 10 mg dose cohort) was 0 (0%), the “Adverse Event: Injection site pruritis” value ([2]; 10 mg dose cohort) was 0 (0%) and the “Adverse Event: Paresthesias” value ([2]; 10 mg dose cohort) was 0 (0%). For the same molecule, the “Adverse Event: Pneumonia” value ([2]; 10 mg dose cohort) was 0 (0%), the “Adverse Event: Toothache” value ([2]; 10 mg dose cohort) was 0 (0%) and the “Number of subjects with ≧1 AE” value ([2]; 10 mg dose cohort) was 1 (33%). The “Adverse Event: Anemia” value ([2]; 20 mg dose cohort) was 0 (0%), the “Adverse Event: Congestive heart failure” value ([2]; 20 mg dose cohort) was 0 (0%) and the “Adverse Event: Decreased ionized calcium” value ([2]; 20 mg dose cohort) was 0 (0%). The “Adverse Event: Gastro-esophageal reflux” value ([2]; 20 mg dose cohort) was 0 (0%), the “Adverse Event: Injection site pruritis” value ([2]; 20 mg dose cohort) was 0 (0%) and the “Adverse Event: Paresthesias” value ([2]; 20 mg dose cohort) was 0 (0%). For the same molecule, the “Adverse Event: Pneumonia” value ([2]; 20 mg dose cohort) was 0 (0%), the “Adverse Event: Toothache” value ([2]; 20 mg dose cohort) was 1 (25%) and the “Number of subjects with ≧1 AE” value ([2]; 20 mg dose cohort) was 1 (25%). The “Adverse Event: Anemia” value ([2]; 40 mg dose cohort) was 0 (0%), the “Adverse Event: Congestive heart failure” value ([2]; 40 mg dose cohort) was 0 (0%) and the “Adverse Event: Decreased ionized calcium” value ([2]; 40 mg dose cohort) was 4 (100%). The “Adverse Event: Gastro-esophageal reflux” value ([2]; 40 mg dose cohort) was 0 (0%), the “Adverse Event: Injection site pruritis” value ([2]; 40 mg dose cohort) was 1 (25%) and the “Adverse Event: Paresthesias” value ([2]; 40 mg dose cohort) was 1 (25%). The “Adverse Event: Pneumonia” value ([2]; 40 mg dose cohort) was 0 (0%), the “Adverse Event: Toothache” value ([2]; 40 mg dose cohort) was 0 (0%) and the “Number of subjects with ≧1 AE” value ([2]; 40 mg dose cohort) was 4 (100%). For the same molecule, the “Adverse Event: Anemia” value ([2]; 60 mg dose cohort) was 0 (0%), the “Adverse Event: Congestive heart failure” value ([2]; 60 mg dose cohort) was 0 (0%) and the “Adverse Event: Decreased ionized calcium” value ([2]; 60 mg dose cohort) was 2 (50%). For the same molecule, the “Adverse Event: Gastro-esophageal reflux” value ([2]; 60 mg dose cohort) was 0 (0%), the “Adverse Event: Injection site pruritis” value ([2]; 60 mg dose cohort) was 0 (0%) and the “Adverse Event: Paresthesias” value ([2]; 60 mg dose cohort) was 0 (0%). The “Adverse Event: Pneumonia” value ([2]; 60 mg dose cohort) was 0 (0%), the “Adverse Event: Toothache” value ([2]; 60 mg dose cohort) was 0 (0%) and the “Number of subjects with ≧1 AE” value ([2]; 60 mg dose cohort) was 2 (50%). The tolerability ([2]; single IV bolus 5-60 mg) was “very well-tolerated”, the “reports of nausea, vomiting or diarrhea” value ([2]; single IV bolus 5-60 mg, 7 days after administration) was “no reports” and the “Clearance (CL) and volume of distribution (Vss) relative to dose” value ([3]; 5-60 mg single IV bolus) was “dose-independent”. The “total plasma exposure (Cmax and AUCall) relative to dose” value ([3]; 5-60 mg single IV bolus) was “reasonably proportional to the administered dose”, the clearance ([3]; in vivo, intravenous, estimated, hemodialysis subjects, read-out: Hemodialysis clearance (converted)) was about 550 mL/min and the AUC [3, 5] was 1080 ng·h/mL. For the same molecule, the Cmax [3, 5] was 133 ng/mL, the clearance ([3]; plasma, Cohort 1, 5 mg single IV bolus, hemodialysis subjects, geometric mean, read-out: CL (converted)) was 28 mL/min and the half-life ([3]; plasma, Cohort 1, 5 mg single IV bolus, hemodialysis subjects, geometric mean, read-out: T½ (converted)) was 121 h. For the same molecule, the Vd [3, 5] was 278 L, the AUC [3, 6] was 2770 ng·h/mL and the Cmax [3, 6] was 257 ng/mL. The clearance ([3]; plasma, Cohort 2, 10 mg single IV bolus, hemodialysis subjects, geometric mean, read-out: CL (converted)) was 31.8 mL/min, the half-life ([3]; plasma, Cohort 2, 10 mg single IV bolus, hemodialysis subjects, geometric mean, read-out: T½ (converted)) was 81.7 h and the Vd [3, 6] was 203 L. It also gave an AUC [3, 7] of 4680 ng·h/mL, a Cmax [3, 7] of 479 ng/mL and a clearance ([3]; plasma, Cohort 3, 20 mg single IV bolus, hemodialysis subjects, geometric mean, read-out: CL (converted)) of 20.2 mL/min. It also gave a half-life ([3]; plasma, Cohort 3, 20 mg single IV bolus, hemodialysis subjects, geometric mean, read-out: T½ (converted)) of 175 h, a Vd [3, 7] of 293 L and an AUC [3, 8] of 8890 ng·h/mL. It also gave a Cmax [3, 8] of 686 ng/mL, an AUC [3, 9] of 14800 ng·h/mL and a Cmax [3, 9] of 1080 ng/mL. The clearance ([3]; plasma, Cohort 5, 60 mg single IV bolus, hemodialysis subjects, geometric mean, read-out: CL (converted)) was 24.2 mL/min, the half-life ([3]; plasma, Cohort 5, 60 mg single IV bolus, hemodialysis subjects, geometric mean, read-out: T½ (converted)) was 115 h and the Vd [3, 9] was 232 L. The half-life ([3]; plasma, across the dose range 5-60 mg single IV bolus, read-out: geometric mean terminal elimination half-life) was 81.7 to 175 h, the clearance ([3]; plasma, single IV bolus, hemodialysis subjects, read-out: Total clearance (converted)) was about 33.3 mL/min and the “corrected calcium level, lowest in any subject at any time during the study” value [4] was at least 7.5 mg/dL.
